What all share (assay type): cell-based
For test [1], the system named is SOS stress response in E. coli MC4100. The test can be described thus: SOS stress reporter assay (PlexA-mNG). To be noted: EC80 compound concentrations (Fig. 5A); Fig. S4. The text has this:
To examine the potential link between DNA gyrase inhibition, SOS stress, and CE stress, we designed a fluorescent SOS reporter plasmid, similar to the reporter plasmids used to study CE stresses.
5 (A) SOS stress induced by different compounds at EC80 concentrations in E. coli MC4100. (B) Rcs stress of different compounds at EC80 concentrations in E. coli MC4100. (C) Rcs stress of the nonquinolone gyrase inhibitor LEI-800 in TOP10F’. (D) Rcs stress induced by mitomycin C in E. coli TOP10F’ and E. coli MC4100. Graphs show fold change in fluorescence adjusted for bacterial growth (OD600). Error bars indicate standard deviation of triplicates. Data are representative of two independent experiments with similar results.
On the technique in general: A reporter such as luciferase makes a cellular process visible.

For another test, the system named is E. coli BW25113. Description: MIC broth microdilution. To be noted: Escherichia coli, CAMHB, median of triplicates, read-out: MIC (μg/mL) E. coli BW25113. Here is the method:
(§1) The antibacterial activity of the compounds was determined by measuring their minimum inhibitory concentration (MIC) values using the broth microdilution method according to the Clinical and Laboratory Standards Institute guidelines (CLSI). Briefly, a single colony from blood agar plates was inoculated into cation-adjusted Mueller-Hinton broth (CAMHB) and grown to OD600 = 0.5. Next, 10^6 CFU/mL were added to a 2-fold serial dilution series of test compounds and incubated at 37 °C, 600 rpm overnight (18–20 h for Gram-negative strains, 20–24 h for Gram-positive strains), after which the plates were visually inspected for bacterial growth. MICs are reported as the median of triplicates.

The next test deals with E. coli TOP10F’. Description: MIC broth microdilution. To be noted: Escherichia coli; screening strain; CAMHB, median of triplicates; read-out: MIC (μg/mL) E. coli TOP10F’. Here is the method: as §1
In general terms: Broth dilution looks for growth in wells or tubes with falling amounts of substance.

The next test has as its system E. coli 25922. The test can be described thus: MIC broth microdilution. To be noted: Escherichia coli, CAMHB, median of triplicates, read-out: MIC (μg/mL) E. coli 25922. The procedure: as §1
For the next test, the system named is K. pneumoniae 13883. The test can be described thus: MIC broth microdilution. Conditions: Klebsiella pneumoniae, clinical isolate, CAMHB, median of triplicates, read-out: MIC (μg/mL) K. pneumoniae 13883. Here is the method: as §1
The test system of a further test is S. aureus USA 300. Description: MIC broth microdilution. To be noted: Staphylococcus aureus, USA300; clinical isolate; CAMHB, median of triplicates; read-out: MIC (μg/mL) S. aureus USA 300. Here is the method:
as §1

The test system of the next test is P. aeruginosa 27853. The test can be described thus: MIC broth microdilution. Conditions: Pseudomonas aeruginosa, clinical isolate, CAMHB, median of triplicates, read-out: MIC (μg/mL) P. aeruginosa 27853. Here is the method: as §1
In another test the test system is A. baumanni 9955. The test can be described thus: MIC broth microdilution. To be noted: Acinetobacter baumannii, clinical isolate, CAMHB, median of triplicates, read-out: MIC (μg/mL) A. baumanni 9955. The procedure:
as §1

Test [2] deals with Rcs cell envelope stress response in Escherichia coli. Description: Rcs stress reporter assay, HTS format, dose-response curves. To be noted: for Emax: read-out: Max. effect (%); for EC50: read-out: pEC50 (converted). Here is the method:
We adapted the reporter assay based on the Rcs stress system for HTS in a screening program at the ELF as the first bacterial phenotypic screen used in this setting. , The assay was performed in a 1536-well format using 25 μM PMBN as a reference (set at 100% effect).
The ELF screened their extensive and diverse library consisting of >500,000 small molecules at a concentration of 10 μM. The assay window (S/B) and Z’ values remained stable (2.0–15.2 and 0.50–0.90, respectively) throughout the screening campaign. The detailed standard screening procedure of the ELF is outlined elsewhere. An overview of the selection process of the screening campaign performed here is outlined in Figure . Initially, 340 compounds with an effect ≥20% of the reference compound PMBN were considered biologically active. Usually, up to 1% of the input library is selected for confirmatory, dose–response, orthogonal and deselection assays. Because the number of biological actives identified in this assay was well below the 1% limit, no orthogonal assays were performed. Instead, all compounds were reordered and tested as dilution series in the Rcs assay to generate dose–response curves (DRCs). Each compound’s pEC50 (−log of EC50, defined as the concentration (mol/L) at which 50% effect is achieved) was determined, and compounds with a pEC50 ≥ 4.7 were selected for further analysis. Next, the compounds were subjected to a mammalian cell-based cytotoxicity assay to exclude toxic compounds that may have a generic effect on membrane integrity. Compounds that reduced mammalian cell viability by 50% were considered cytotoxic. The qualified hit list (QHL) was then generated following triaging based on LC-MS analysis and pEC50 values.
Overnight cultures (ONCs) were prepared by inoculating 5 mL medium from glycerol stocks and incubating the culture for 16–18 h. ONCs were then diluted to an OD600 of 0.05 and grown until an OD600 of 0.3–0.4 was reached.
Assay robustness was confirmed by testing its sensitivity to assay-interfering agents, including colored, aggregating and fluorescent compounds. […] For HTS, bacteria were diluted 50x in prewarmed medium. Fifteen nL of assay compounds (10 μM), DMSO (0.25%), or the reference compound polymyxin B nonapeptide (PMBN) at 25 μM were added to 1536 well plates. Next, 6 μL culture aliquots were added to assay plates containing compounds. Plates were briefly centrifuged for 1 min at 150 x g. Plates were incubated at 37 °C with high humidity and fluorescence (Ex./Em. λ: 485/528 nm) was measured at T = 0 and T = 150 min using a ClarioStar plate reader (BMG Labtech). For data analysis, T = 0 values were subtracted from T = 150 values to calculate Z-score and % effect compared to the reference compound.
Dose–response curves of the 340 initial active compounds were determined following the preparation of serial dilutions (20 nM–20 μM; 7 points, √10). The % effect compared to the reference compound PMBN was calculated and plotted for each compound dilution. The resulting plots were used to calculate pEC50 (-log(EC50), with EC50 being determined as the concentration at which a 50% effect is observed).

≈ marks a conversion by molar mass, not a printed value.

From PMC12442099 (ACS Infectious Diseases, 2025) come the findings set out here.

Regarding `CC(C)(C)n1cc(C(=O)O)c(=O)c2cc(F)c(N3CC4CC3CN4)nc21` (centres unmarked) [A2], the “SOS stress induction in MC4100” value in test [1] is “induced SOS stress at similar levels as the FQ lomefloxacin”. In addition, the MIC in the test with E. coli BW25113 was 0.06 µg/mL (≈ 0.166 µM); in the test with E. coli TOP10F’ it was below 0.03 µg/mL; in the test on E. coli 25922 it was 0.125 µg/mL (≈ 0.347 µM); in the test on K. pneumoniae 13883, 0.125 µg/mL (≈ 0.347 µM); with S. aureus USA 300, 8 µg/mL (≈ 22.2 µM); with P. aeruginosa 27853 it was 1 µg/mL (≈ 2.77 µM). Further, the MIC in the test on A. baumanni 9955 amounted to 0.5 µg/mL (≈ 1.39 µM). Moreover, the Emax in [2] was determined as 26.6%. Besides, in test [2], the EC50 was 107 nM.

Turning to `O=C1COc2ccc(CNC3CCN(CC4Cc5c(F)cc(F)c6ccc(=O)n4c56)CC3)nc2N1` (centres unmarked) [B1], in [1], the “SOS stress induction in MC4100” value is “induced SOS stress at similar levels as the FQ lomefloxacin”. The MIC is 0.25 µg/mL (≈ 0.519 µM) with E. coli BW25113; below 0.03 µg/mL in the test with E. coli TOP10F’; 0.5 µg/mL (≈ 1.04 µM) in the test on E. coli 25922; 1 µg/mL (≈ 2.08 µM) with K. pneumoniae 13883; 0.06 µg/mL (≈ 0.125 µM) in the test on S. aureus USA 300; 8 µg/mL (≈ 16.6 µM) in the test on P. aeruginosa 27853. The MIC in the test on A. baumanni 9955 was 0.25 µg/mL (≈ 0.519 µM). For the same molecule, the Emax in [2] stood at 53.3%. Also, in test [2], the EC50 was 282 nM.
